For the series the following is noted: in water.

By solubility (mole fraction) is commonly meant the moles of solute divided by all moles in the saturated solution. In the case of `C[C@@H](O)[C@H]1C(=O)N2C(C(=O)[O-])=C(SC3Cn4cnc[n+]4C3)[C@H](C)[C@H]12` (stereo not given in full), the solubility (mole fraction) is, setting by setting: (283.15 K) 0.000323; (288.15 K) 0.000367; (293.15 K) 0.000413; (298.15 K) 0.000463; (303.15 K) 0.000521; (308.15 K) 0.000584. Moreover, the solubility (mole fraction) is, setting by setting: (313.15 K) 0.000649; (318.15 K) 0.000721; (323.15 K) 0.000807.
Regarding `O=c1ccc2ccccc2o1`, the solubility (mole fraction) is, setting by setting: (298.15 K) 0.000235; (303.15 K) 0.000319; (308.15 K) 0.000388; (313.15 K) 0.000439.
Take `CSCC[C@H](N)C(=O)O`: the solubility (mole fraction) is, setting by setting: (283.15 K) 0.00531; (288.15 K) 0.00555; (293.15 K) 0.00625; (298.15 K) 0.00681; (303.15 K) 0.00724; (308.15 K) 0.00787. Also, for the setting “313.15 K”, the solubility (mole fraction) amounted to 0.00837.
